Series [1] is described as follows: Metabolic stability in human liver S9 fraction. The procedure:
(§1) Shimadzu HPLC system including vacuum degasser, gradient pumps, reverse phase HPLC column, column oven, and autosampler with an API 4000 QTRAP mass spectrometer (Applied Biosystems/MDS Sciex (AB Sciex) with Turbo V ion source and TurboIonspray interface were used. The reference compound midazolam, which is metabolized both by phase I and phase II enzymes, was used. The elimination constant (kel), half-life (t1/2), and intrinsic clearance (Clint) were determined[19] (Table S1).
Supplementary Figure 1. […] Test compounds (1 μM, final DMSO concentration 1%) were incubated at 37 °C with shaking at 100 rpm. Four time points over 120 minutes have been analyzed. The reactions were stopped by adding 420 μL of acetonitrile-water mixture (90:10). Supernatants were analyzed by the HPLC system coupled with a tandem mass spectrometer. The percentage (in % of initial concertation) of the test compounds remaining after incubation in plasma and their half-lives (t1/2) were calculated. […] The stability of the compound was tested in human liver S9 fraction. Cofactors were used such as UDPGA (for glucuronidation), PAPS (for sulfation), and reduced glutathione (for conjugation of GSH). Compounds were tested in triplicate with or without NADPH. Propantheline and midazolam were used as unstable control compounds in the experiments. Data represent the means±S.D. from at least three independent samples.

A short description of series [2]: Metabolic stability in mouse liver S9 fraction. The conditions noted are these: male, CD-1, mouse, s9. The procedure:
as §1

A further series relates to HepaRG KO CAR cells. Kind of series: RT-qPCR mRNA expression in HepaRG KO CAR cells. Type of series: cell-based, human. The conditions noted are these: Phenobarbital 500 μM, CITCO 1 μM, MI 883 1 μM; ctrl = 1. For orientation: In qPCR the cycle at which signal appears reflects the starting amount.
In series [3] the test system is LS174T cells (endogenous PXR). Description: CYP3A4 mRNA RT-qPCR in LS174T cells.
Description: LS174T human colon adenocarcinoma cells (RRID:CVCL_1384) were used in induction experiments with the subsequent CYP3A4 mRNA RT-qPCR analysis as they express functional endogenous PXR.
Series [4] concerns PXR-responsive CYP3A4(pER6)-luc construct. Kind of series: CYP3A4(pER6)-luc luciferase reporter assay in HepG2 cells.
Another series relates to murine Car. The conditions noted are these: cited from earlier work.
The target in a further series is T1, CAR-LBD (Homo sapiens, UniProt Q14994).
T1 construct: HIS-tagged CAR-LBD (ThermoFisher Sciences, Cat. No PV4836); purchased ThermoFisher PV4836
T1 sequence (Q14994 109-348 isoform Q14994-2 limits assumed): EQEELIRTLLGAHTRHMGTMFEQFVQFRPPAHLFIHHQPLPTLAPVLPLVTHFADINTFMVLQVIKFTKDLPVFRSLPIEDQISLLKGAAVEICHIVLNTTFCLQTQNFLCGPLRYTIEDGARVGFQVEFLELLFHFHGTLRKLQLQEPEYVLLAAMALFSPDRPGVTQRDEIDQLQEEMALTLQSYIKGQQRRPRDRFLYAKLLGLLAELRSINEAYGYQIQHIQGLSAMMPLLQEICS
Description: MARCoNI CAR-LBD coregulator interaction array. The series is classed as biochemical. The conditions noted are these: 100 μM. The procedure:
The reaction was performed in a fully automated microarray processing and fluorescent imaging platform (PamStation12) at 20 °C for 80 cycles (two cycles per minute). After removal of the unbound CAR-LBD receptor by washing each array with 25 µl Tris-buffered Saline (TBS) buffer, fluorescent images of the PamChip microarrays were obtained using the PamStation12, and then were analyzed for quantification of CAR binding using BioNavigator software (PamGene International B.V.). For data and statistical analysis, BioNavigator was used.
Modulation index (MI) is the log10-transformed relative binding value, which is calculated by the compound’s binding value, relative to the vehicle control (DMSO) binding value.

In a further series the test system is HepaRG cells. Description: RT-qPCR mRNA expression in differentiated HepaRG cells.
Setting [5] is: normal mice, ref 10 of the reply (Dempsey et al.).

“And” between values parts separate entries of the source, which are not always exact repeats. Equal entries are not always repeated.

Description for HepaRG KO CAR cells: (§2) HepaRG cells from Biopredic (Rennes, France) were cultivated and differentiated on the 12-well plates. […] Several batches of HepaRG KO CAR (CAR Knockout HepaRG™ Cells, MTOX1012-1VL, RRID:CVCL_B6AA) and PXR Knockout HepaRG™ Cells, MTOX1011-1VL, RRID:CVCL_B6AS) cells have been obtained from Sigma-Aldrich/Merck (Darmstadt, Germany) and cultivated according to the provider’s protocols. […] Experiments with HepaRG KO PXR and HepaRG KO CAR cells have been performed in duplicates at least in two independent experiments.
(§3) RT-qPCR was used to examine gene expression in 2D and 3D PHH, HepaRG cells, or in mouse liver or intestine (ileum) samples as we have described before[60]–[62].
(§4) All qRT-qPCR experiments including Trizol reagent (Life Technologies) total RNA isolation, reverse-transcription using a random hexaprimer, and the MMLV Reverse Transcriptase Kit (ThermoFisher Scientific) we have described before^19. qPCR was performed using TaqMan Fast Advanced Master Mix with TaqMan probes (ThermoFisher Scientific). […] The delta-delta method was used for gene expression quantification normalized to at least two reference genes. Three technical replicates were used for each reaction considering the MIQE guidelines. Data are presented as fold induction to vehicle-treated cells/animals.
Description for HepaRG cells: as §2, §3, §4

For `Cc1ncc2n1-c1ccc(Cl)cc1C(c1ccccc1F)=NC2` [Midazolam, midazolam], in series [1] (human, s9), the half-life (as a rule, how long it takes for the measured level to halve) at 2 µM was 6.3 ± 0.3 min. Further, the microsomal CLint (commonly the rate of metabolic loss divided by the concentration) at 2 µM in series [1] (human, s9) is 55 ± 2.5 µL/min/mg. Also, the “Stability in S9 fraction (human liver), % remaining” value in series [1] (time 0 (min), 2 μM) is reported as 100; in series [1] (time 20), 94; in series [1] (time 40), 53; in series [1] (time 60) it was 18; in series [1] (time 120), 1. In series [2], this molecule came in with a half-life of 3.1 min. The same molecule came in with a microsomal CLint in series [2] of 113 µL/min/mg.

As to `CCC1(c2ccccc2)C(=O)NC(=O)NC1=O` [Phenobarbital], in the series on HepaRG KO CAR cells, the “CYP2B6 mRNA, RT-qPCR, HepaRG KO CAR (Fig. 1f), replicates” value was 2.7 and 1.95 and 2.4.

In the case of `CCOP(=O)(OCC)C(=Cc1cc(C(C)(C)C)c(O)c(C(C)(C)C)c1)P(=O)(OCC)OCC` [SR12813], in series [3] (single agent 1μM, ctrl = 1), the “RT-qPCR in LS174T (Fig 1 l, CYP3A4 mRNA), replicates” value is 1.75 and 3.85 and 3.1. Also, the “pER6-luc luciferase gene reporter assay (Fig1 m), replicates” value in series [4] (single agent 1μM, ctrl ~1) is 6.4 and 6.3 and 4.7; in series [4] (single agent 10μM), 11.93 and 6.55 and 11.

Consider `Clc1cnc(Oc2ccc(Oc3ncc(Cl)cc3Cl)cc2)c(Cl)c1` [TCPOBOP], for which, in the series with murine Car (Ldlr –/– mice), the “suppression of atherosclerotic lesions in the aortic valves” value is listed as 60%. In addition, in the series on murine Car (after 2 months), the “decrease of cholesterol content in the liver” value is reported as 25% and the “decrease of cholesterol content in the whole body” value was about 50%. Further, in the series on murine Car (mice), the “increase of fecal excretion of 3H-labeled bile acids” value is given as ~ 40%. Also, in the series with murine Car (setting [5]), the “colon bsh activity compared to control animals” value is 30%; the “increase of colon unconjugated and total BA pools (not significant)” value is on record as “about 1.4 fold”.

In the case of `Clc1ccccc1C(c1ccccc1)(c1ccccc1)n1ccnc1` [clotrimazole, reference compound], on CAR-LBD, the CAR-coregulator interaction profile result was “releasing most of the coactivator proteins”.

`CO[C@H]1/C=C/O[C@@]2(C)Oc3c(C)c(O)c4c(O)c(c(/C=N/N5CCN(C)CC5)c(O)c4c3C2=O)NC(=O)/C(C)=C\C=C\[C@H](C)[C@H](O)[C@@H](C)[C@@H](O)[C@@H](C)[C@H](OC(C)=O)[C@@H]1C` [rifampicin, reference compound]: the “PCSK9 mRNA in HepaRG cells” value in the series with HepaRG cells (Supplementary Fig. 10b) was “Marginal effect”. For the same molecule, in the series with HepaRG cells (rifampicin (5 μM)), the “SQLE mRNA in HepaRG cells” value is recorded as “weakly but significantly upregulated”.

Consider SPA70 [reference compound], for which the “RT-qPCR in LS174T (Fig 1 l, CYP3A4 mRNA), replicates” value is 0.37 and 0.6 and 0.8 in series [3] (Rif 1μM + test compound 10μM); 0.46 and 0.35 and 0.34 in series [3] (SR12813 1μM + test compound 10μM); 0.29 and 0.5 and 0.49 in series [3] (single agent 10μM). Further, the “basal expression of SQLE mRNA in HepaRG cells” value with HepaRG cells was “downregulated”. In addition, the “rifampicin induction of SQLE mRNA in HepaRG cells” value in the series on HepaRG cells (MI-883 at 1 μM, SPA70) is “abrogated”. Also, the “CYP2B6 expression relative to control (replicates)” value in the series on HepaRG cells (SPA70 1 μM) was 0.7099 and 0.6385; with HepaRG cells (SPA70 1 μM + CITCO (1 μM)) it was 0.8 and 0.8395 and 0.9953; with HepaRG cells (SPA70 5 μM), 0.4419 and 0.6247 and 0.5722; in the series with HepaRG cells (SPA70 5 μM + Rif (5 μM)), 0.8063 and 0.705 and 0.7533; in the series on HepaRG cells (SPA70 10 μM), 0.4185 and 0.6476 and 0.5707 and 0.3103; with HepaRG cells (SPA70 10 μM + CITCO (1 μM)) it was 0.9283 and 0.5126 and 0.8752. Moreover, the “CYP2B6 expression relative to control (replicates)” value in the series on HepaRG cells (SPA70 10 μM + Rif (5 μM)) is 0.4242 and 0.5514 and 0.5133; with HepaRG cells (SPA70 20 μM), 0.8031 and 0.3464; in the series on HepaRG cells (SPA70 20 μM + CITCO (1 μM)) it was 1.219 and 0.6292 and 0.9541; in the series on HepaRG cells (SPA70 20 μM + Rif (5 μM)), 0.5214 and 0.5645. Moreover, the “CYP3A4 expression relative to control (replicates)” value in the series on HepaRG cells (SPA70 5 μM + Rif (5 μM)) was 1.181 and 0.9078 and 1.057; in the series with HepaRG cells (SPA70 10 μM + Rif (5 μM)), 0.8451 and 0.9487 and 0.8513 and 0.8231; in the series with HepaRG cells (SPA70 20 μM + Rif (5 μM)), 0.8451 and 0.7532. The “rifampicin-induced and basal CYP3A4 and CYP2B6 mRNA expression in HepaRG cells” value with HepaRG cells (Supplementary Fig. 10) is “suppressed”. Moreover, the “pER6-luc luciferase gene reporter assay (Fig1 m), replicates” value in series [4] (Rif 1μM + SPA70 10μM) is 1.57 and 1.64 and 1.5; in series [4] (SR12813 1μM + SPA70 10μM) it was 1.2 and 2 and 3.55; in series [4] (single agent 1μM, ctrl ~1), 1.15 and 1.67 and 1.39; in series [4] (single agent 10μM), 1 and 1.1 and 1.26.

As for SPA-70, the “CYP3A4 expression relative to control (replicates)” value is 0.8854 and 0.7984 in the series on HepaRG cells (SPA-70 1 μM); 0.7429 and 0.6513 and 0.7215 with HepaRG cells (SPA-70 5 μM); 0.443 and 0.6539 and 0.5479 and 0.7562 in the series with HepaRG cells (SPA-70 10 μM); 0.5871 and 0.5215 in the series with HepaRG cells (SPA-70 20 μM). Moreover, the “SQLE expression relative to control (mean)” value in the series with HepaRG cells (SPA-70 1 μM + Rif (5 μM)) is listed as 0.6659; in the series on HepaRG cells (SPA-70 1 μM, 48 h), 0.6886; with HepaRG cells (SPA-70 5 μM + Rif (5 μM)), 0.7312; in the series on HepaRG cells (SPA-70 5 μM, 24 h), 0.9488; with HepaRG cells (SPA-70 5 μM, 48 h) it was 0.6267; with HepaRG cells (SPA-70 10 μM + Rif (5 μM)) it was 0.7448. In addition, the “SQLE expression relative to control (mean)” value with HepaRG cells (SPA-70 10 μM, 24 h) amounted to 0.7277; in the series on HepaRG cells (SPA-70 10 μM, 48 h), 0.6494; with HepaRG cells (SPA-70 20 μM + Rif (5 μM)) it was 0.8792; in the series on HepaRG cells (SPA-70 20 μM, 48 h), 0.7487.

Source of the values: paper PMC11802874, “The hypolipidemic effect of MI-883, the combined CAR agonist/ PXR antagonist, in diet-induced hypercholesterolemia model” (Nature Communications, 2025).
